Data set [1] concerns 11 clinically relevant bacterial pathogens. It counts as cell-based. The following applies: for Active or Inactive: Supplementary Dataset 2, against the 11 pathogens tested. The procedure, abridged:
(§1)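 Single colonies were grown overnight (16 h) at 37 °C in LB, diluted 1:100, regrown to OD600 = 0.3–0.5, then exposed to aqueous peptide solutions from 1 to 64 μmol l^−1 by broth microdilution, with plates read at 600 nm.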

The subject of another data set is HEK293T cells. Conditions: 24 h. The procedure, abridged:
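5,000 cells/well seeded a day ahead in DMEM with 10% FBS, then treated with peptides; viability by MTT (0.5 mg/ml, 4 h, 37 °C), formazan in acidic isopropanol read at 570 nm. Concentration causing 50% lysis from non-linear regression; three biological replicates, two technical each.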

Data set [2] concerns E. faecium ATCC 700221 (vancomycin-resistant strain). It counts as cell-based, Enterococcus faecium. Conditions: ATCC 700221, 20 h. From the text: (§2) The following Gram-negative bacteria were used in our study: A. baumannii ATCC 19606, E. coli ATCC 11775, E. coli AIC221 (E. coli MG1655 phnE_2::FRT), E. coli AIC222 (E. coli MG1655 pmrA53 phnE_2::FRT (colistin resistant)), K. pneumoniae ATCC 13883, P. aeruginosa PAO1 and P. aeruginosa PA14. The following Gram-positive bacteria were also used in our study: S. aureus ATCC 12600, S. aureus ATCC BAA-1556 (methicillin-resistant strain), E. faecalis ATCC 700802 (vancomycin-resistant strain) and E. faecium ATCC 700221 (vancomycin-resistant strain). Bacteria were grown from frozen stocks and plated on Luria–Bertani (LB) or Pseudomonas isolation agar plates (P. aeruginosa strains) and incubated overnight at 37 °C. After the incubation period, a single colony was transferred to 5 ml of LB medium, and cultures were incubated overnight (16 h) at 37 °C. The following day, an inoculum was prepared by diluting the overnight cultures 1:100 in 5 ml of the respective media and incubating them at 37 °C until bacteria reached logarithmic phase (OD600 = 0.3–0.5).
(§3) The in vitro antimicrobial activity of the peptides was assessed by using the broth microdilution assay. […] Aqueous solutions of the peptides were added to the plate at concentrations ranging from 1 to 64 μmol l^−1. […] The optical density of the plates was measured at 600 nm using a spectrophotometer. All assays were done as three biological replicates.

Data set [3] relates to A. baumannii ATCC 19606. Type of data set: cell-based, Acinetobacter baumannii. Conditions: ATCC 19606, 20 h. In outline:
as §1

Data set [4] has as its system S. aureus ATCC BAA-1556 (methicillin-resistant strain). It counts as cell-based, Staphylococcus aureus. The following applies: ATCC BAA-1556, 20 h.
Source text: as §2, §3

Another data set relates to S. aureus ATCC 12600. Type of data set: cell-based, Staphylococcus aureus. Conditions: ATCC 12600, 20 h.
Source text: as §2, §3

For another data set, the system named is E. coli AIC221. It counts as cell-based, Escherichia coli. Conditions: AIC221, 20 h.
Source text: as §2, §3

Another data set deals with P. aeruginosa PA14. It counts as cell-based, Pseudomonas aeruginosa. Conditions: PA14, 20 h.
Source text: as §2, §3

In another data set the test system is P. aeruginosa PAO1. It counts as cell-based, Pseudomonas aeruginosa. Conditions: PAO1, 20 h.
Source text: as §2, §3

A further data set relates to K. pneumoniae ATCC 13883. Type of data set: cell-based, Klebsiella pneumoniae. The following applies: ATCC 13883, 20 h.
Source text: as §2, §3

Data set [5] concerns E. faecalis ATCC 700802 (vancomycin-resistant strain). Type of data set: cell-based, Enterococcus faecalis. The following applies: ATCC 700802, 20 h.
Source text: as §2
The in vitro antimicrobial activity of the peptides was assessed by using the broth microdilution assay. […] Aqueous solutions of the peptides were added to the plate at concentrations ranging from 1 to 64 μmol l^−1. […] The optical density of the plates was measured at 600 nm using a spectrophotometer. […]

Data set [6] relates to A. baumannii ATCC 19606. In words: Cytoplasmic membrane depolarization assay (DiSC3-5). It counts as cell-based, Acinetobacter baumannii. Conditions: DiSC3-5 fluorescence, peptide at its MIC, polymyxin B as positive control; three replicates. The protocol:
The depolarization of the bacterial cytoplasmic membrane was determined by fluorescence measurements of the membrane potential-sensitive dye, DiSC3-5 (ref. [16]). Briefly, A. baumannii ATCC 19606 and P. aeruginosa PAO1 were grown at 37 °C until mid-log phase (OD600 = 0.5). The cells were then centrifuged using the same conditions described for the NPN uptake assays, washed twice with washing buffer containing 20 mmol l^−1 glucose and 5 mmol l^−1 HEPES (pH 7.2). The cells were diluted 1:10 (OD600 = 0.05) in a buffer containing 0.1 mol l^−1 KCl, 20 mmol l^−1 glucose and 5 mmol l^−1 HEPES (pH 7.2). About 100 μl of bacterial solution was then incubated for 15 min with 20 nmol l^−1 of DiSC3-5 until the fluorescence reached a plateau, that is, the dye was fully internalized into the bacterial membrane. Transmembrane potential changes were monitored by observing the difference in the fluorescence emission intensity of DiSC3-5 (λex = 622 nm, λem = 670 nm), after the addition of 100 μl of peptide aqueous solution at its MIC. All assays were performed in three biological replicates. The relative fluorescence values were calculated for the course of the experiment using non-linear fitting, and the untreated control (buffer + bacteria + fluorescent dye) served as baseline. The following equation was applied to show the percentage difference between the fluorescence of the untreated control (baseline) and the sample: Percentagedifference=100×(fluorescencesample−baseline)/baseline

In brackets after ≈: the same amount, converted by molar mass. Peptide text beside a SMILES is read from it.

With `CC[C@H](C)[C@H](NC(=O)[C@H](CO)NC(=O)CNC(=O)[C@H](CC(C)C)NC(=O)[C@H](CC(C)C)NC(=O)[C@H](CC(C)C)NC(=O)[C@H](CCCNC(=N)N)NC(=O)[C@H](CCCCN)NC(=O)[C@@H](NC(=O)[C@H](CO)NC(=O)[C@H](CC(N)=O)NC(=O)[C@@H](NC(=O)[C@H](CC(C)C)NC(=O)[C@@H](N)CC(C)C)[C@@H](C)CC)[C@@H](C)CC)C(=O)N[C@@H](CC(C)C)C(=O)O` [Arctodutin-1] (H-LLINSIKRLLLGSIL-OH; N-terminus and C-terminus assumed), the “Active or Inactive” value in [1] was “Active”. For the same compound, the CC50 in the data set on HEK293T cells is > 128 µM. Moreover, in data set [2], the “Minimal inhibitory concentration, E. faecium ATCC700221-VRE” value is 2 µM (≈ 3.33 µg/mL). Also, the “Minimal inhibitory concentration, A. baumannii ATCC19606” value with A. baumannii ATCC 19606 [3] worked out at 8 µM (≈ 13.3 µg/mL). For the same compound, in [4], the “Minimal inhibitory concentration, S. aureus ATCC BAA-1556-MRSA” value came to 8 µM (≈ 13.3 µg/mL). The “Minimal inhibitory concentration, S. aureus ATCC12600” value in the data set with S. aureus ATCC 12600 amounted to 8 µM (≈ 13.3 µg/mL).

For `CC[C@H](C)[C@H](NC(=O)[C@H](CCCCN)NC(=O)[C@H](CCCCN)NC(=O)[C@H](Cc1ccccc1)NC(=O)[C@H](Cc1ccccc1)NC(=O)[C@@H](NC(=O)[C@@H](NC(=O)[C@H](CO)NC(=O)[C@H](CCCCN)NC(=O)[C@@H](NC(=O)[C@@H](NC(=O)[C@H](Cc1c[nH]c2ccccc12)NC(=O)[C@H](CCCCN)NC(=O)[C@H](CCCCN)NC(=O)[C@@H](NC(=O)[C@H](CCC(=O)O)NC(=O)[C@H](CCCCN)NC(=O)[C@H](CC(C)C)NC(=O)[C@@H](NC(=O)[C@H](CCCCN)NC(=O)[C@H](CCCNC(=N)N)NC(=O)[C@H](CC(C)C)NC(=O)[C@H](CC(C)C)NC(=O)[C@@H](N)CCCCN)C(C)C)[C@@H](C)O)C(C)C)[C@@H](C)CC)C(C)C)C(C)C)C(=O)N[C@@H](CCCNC(=N)N)C(=O)N[C@@H](CCCCN)C(=O)O` [Hesperelin-1] (H-KLLRKVLKETKKWVIKSVVFFKKIRK-OH; N-terminus and C-terminus assumed), the “Active or Inactive” value in data set [1] is recorded as “Active”. For the same compound, the cytotoxic concentration (CC50) with HEK293T cells was > 128 µM. Further, in the data set with E. coli AIC221, the “Minimal inhibitory concentration, E. coli AIC221” value was 8 µM (≈ 26 µg/mL). Besides, the “Minimal inhibitory concentration, E. faecium ATCC700221-VRE” value in [2] turned out to be 2 µM (≈ 6.49 µg/mL). Moreover, in the data set with A. baumannii ATCC 19606 [3], the “Minimal inhibitory concentration, A. baumannii ATCC19606” value is 4 µM (≈ 13 µg/mL). The “Minimal inhibitory concentration, P. aeruginosa PA14” value with P. aeruginosa PA14 was 16 µM (≈ 51.9 µg/mL). Besides, in the data set with P. aeruginosa PAO1, the “Minimal inhibitory concentration, P. aeruginosa PAO1” value is 8 µM (≈ 26 µg/mL).

With `CC(C)C[C@H](NC(=O)[C@H](CC(C)C)NC(=O)[C@@H](NC(=O)[C@H](CCCNC(=N)N)NC(=O)[C@H](C)NC(=O)[C@H](Cc1ccccc1)NC(=O)[C@H](CCCNC(=N)N)NC(=O)[C@H](CO)NC(=O)[C@H](Cc1c[nH]c2ccccc12)NC(=O)[C@H](CCCNC(=N)N)NC(=O)[C@H](CC(C)C)NC(=O)[C@H](CCCCN)NC(=O)[C@H](CC(C)C)NC(=O)[C@@H](N)Cc1ccccc1)C(C)C)C(=O)O` [Equusin-1] (H-FLKLRWSRFARVLL-OH; N-terminus and C-terminus assumed), the “Active or Inactive” value in data set [1] is listed as “Active”. The “MIC (lowest MIC value in the antimicrobial activity assays)” value in [1] (Supplementary Table 17, lowest MIC among the strains tested) amounted to 1 µM (≈ 1.81 µg/mL). Moreover, the CC50 with HEK293T cells is > 128 µM. Further, the “Minimal inhibitory concentration, E. coli AIC221” value with E. coli AIC221 is 4 µM (≈ 7.22 µg/mL). Further, in data set [2], the “Minimal inhibitory concentration, E. faecium ATCC700221-VRE” value worked out at 1 µM (≈ 1.81 µg/mL). The “Minimal inhibitory concentration, K. pneumoniae ATCC133883” value in the data set with K. pneumoniae ATCC 13883 was 16 µM (≈ 28.9 µg/mL). Moreover, in data set [4], the “Minimal inhibitory concentration, S. aureus ATCC BAA-1556-MRSA” value was determined as 16 µM (≈ 28.9 µg/mL). Besides, the “Minimal inhibitory concentration, P. aeruginosa PA14” value in the data set with P. aeruginosa PA14 was 4 µM (≈ 7.22 µg/mL). Moreover, in the data set on P. aeruginosa PAO1, the “Minimal inhibitory concentration, P. aeruginosa PAO1” value turned out to be 16 µM (≈ 28.9 µg/mL).

Regarding `CC[C@H](C)[C@H](NC(=O)[C@H](CCCCN)NC(=O)[C@H](CC(C)C)NC(=O)[C@H](CCC(N)=O)NC(=O)[C@H](Cc1ccccc1)NC(=O)[C@@H](NC(=O)[C@@H](NC(=O)[C@H](Cc1ccccc1)NC(=O)[C@H](CC(C)C)NC(=O)[C@@H](NC(=O)[C@@H](N)CC(C)C)[C@@H](C)O)[C@@H](C)CC)[C@@H](C)CC)C(=O)N[C@@H](CO)C(=O)N[C@@H](CCCCN)C(=O)N[C@@H](CC(C)C)C(=O)O` [Paleopropin-1] (H-LTLFIIFQLKISKL-OH; N-terminus and C-terminus assumed), the “Active or Inactive” value in data set [1] is “Active”. Also, in the data set on HEK293T cells, the CC50 was > 128 µM and the “TI (therapeutic index)” value is > 4. Also, the “Minimal inhibitory concentration, E. faecalis ATCC700802-VRE” value in data set [5] worked out at 16 µM (≈ 26.8 µg/mL).

`CC[C@H](C)[C@H](NC(=O)[C@H](Cc1ccc(O)cc1)NC(=O)[C@H](C)NC(=O)[C@@H](N)CCCNC(=N)N)C(=O)N[C@@H](CS)C(=O)N[C@@H](CCCNC(=N)N)C(=O)N[C@@H](CCCCN)C(=O)N[C@@H](CCCCN)C(=O)N[C@@H](Cc1ccccc1)C(=O)N[C@@H](CC(C)C)C(=O)N[C@@H](CO)C(=O)N[C@@H](CC(C)C)C(=O)N[C@@H](CCCNC(=N)N)C(=O)N[C@@H](CCCCN)C(=O)N[C@@H](C)C(=O)N[C@@H](CO)C(=O)N[C@H](C(=O)N[C@@H](CCCCN)C(=O)N[C@@H](CC(C)C)C(=O)N[C@@H](CCC(N)=O)C(=O)N[C@@H](CO)C(=O)N[C@@H](CC(C)C)C(=O)N[C@H](C(=O)N[C@@H](CCCNC(=N)N)C(=O)N[C@@H](CCSC)C(=O)N[C@@H](CCCCN)C(=O)O)C(C)C)[C@@H](C)CC` [Equusin-2] (H-RAYICRKKFLSLRKASIKLQSLVRMK-OH; N-terminus and C-terminus assumed): in [1], the “Active or Inactive” value is on record as “Active”. Besides, in the data set on HEK293T cells, the CC50 is > 128 µM and the “TI (therapeutic index)” value is given as > 16. In addition, in the data set with E. coli AIC221, the “Minimal inhibitory concentration, E. coli AIC221” value is 16 µM (≈ 50.2 µg/mL). Further, the “Cytoplasmic membrane depolarization, in words” value in the data set on A. baumannii ATCC 19606 [6] was “most potent depolarization effects”. Further, the “Minimal inhibitory concentration, A. baumannii ATCC19606” value with A. baumannii ATCC 19606 [3] worked out at 8 µM (≈ 25.1 µg/mL).

The record behind these values is PMC11310081, “Deep-learning-enabled antibiotic discovery through molecular de-extinction” (Nature Biomedical Engineering, 2024).
